Measurements: patent US10016365B2, “Compositions and methods of tumor treatment utilizing nanoparticles” (priority 2015, dated 2018)
Where two headings read alike, the source gives them in different places.

What was measured:
[1] = test system: metastatic non-small lung cancer; conditions: P=0.271; cited from earlier work
lung metastases = experiment: Lung metastases model (tail vein injection of tumor cells); format: in vivo, SCID mice
Description: (7B) Control of lung metastases. Mouse was induced lung metastases by tail vein injection of tumor cells at d1.
Animals were used in compliance with institutional animal health care regulations, and all animal experimental procedures were approved by the Institutional Animal Care and Use Committee. […] Groups of mice were treated. A 2-factor factorial design was implemented with factor 1 (systematic delivery versus regional delivery) and factor 2 (free drug versus nanomedicine). […] The dosing schedule for each paired drugs (free drug and nanomedicine) was given on maximal tolerated dose based on preliminary study. Lung metastases were induced by tail-vein injection, while liver metastases were by splenic injection, and retroperitoneal lymphatic metastases were induced by intra-uterine injection of tumor cells.

[2] = test system: human ovarian cancer cell line ES-2; experiment: Flow cytometry apoptosis assay of tumor after treatment; format: in vivo, SCID mice; conditions: systematic delivery
Source text: A single intraperitoneal injection of human ovarian cancer cell line ES-2 (2×10^5 cells per mouse, ATCC no. CRL-1978) at d0 into 5-week-old SCID mice (CB.17 scid/scid) was commenced to generate tumor, which was confirmed via abdominal distension and malignant ascites in 3 weeks. […] Animals were used in compliance with institutional animal health care regulations, and all animal experimental procedures were approved by the Institutional Animal Care and Use Committee. Tumor-bearing mice were euthanized at the endpoint when there were signs of distress, including fur ruffling, rapid respiratory rate, hunched posture, reduced activity, and progressive ascites formation. Groups of mice were treated. A 2-factor factorial design was implemented with factor 1 (systematic delivery versus regional delivery) and factor 2 (free drug versus nanomedicine). […] The dosing schedule for each paired drugs (free drug and nanomedicine) was given on maximal tolerated dose based on preliminary study.

recurrent ovarian tumor = conditions: HIPEC, 10 mg/kg
Description: Depicted are inflow and outflow ports and anal temperature probe to monitor internal temperature of mouse during perfusion. Mice were perfused for 1 h at the rate of 3 mL/min with Taxol® (10 mg/kg). […] Experiments were repeated in triplicate.

[3] = test system: human ovarian cancer cell line ES-2; format: in vivo; conditions: regional delivery
Source text: (§1) Experiments were repeated in triplicate.
as §1, §1, §1, §1

CT-26-luc cells = experiment: Antitumor activity in colon cancer syngeneic mice model (CT-26-luc i.p., BLI and survival); format: in vivo, BALB/c mice
Description: Tumor cell growth was determined by measuring bioluminescence images (BLI) using IVIS system. Treatments were initiated when the tumor dissemination (judged by luminescence activity) reached baseline. […] Survival of these animals was recorded.
Five-week-old female BALB/c mice were purchased from the National Laboratory Animal Breeding and Research Center of Taipei and maintained in the oncology animal facility of Taipei Veterans General Hospital, Taipei, Taiwan. The animals were used in compliance with the institutional animal health care regulations, and all of the animal experimental procedures were approved by the Institutional Animal Care and Use Committee.
Exact dosing volume was calculated using body weight. Control group was given 100 ul of 0.9% Sodium Chloride Injection.
BALB/c mice (6 weeks) were injected with 1×10^5 CT-26-luc cells in 250 ul opti-MEM by i.p. on Day 0 (D0). After 4 days (D4), tumor cell growth was determined by measuring luminescence activity using IVIS system (baseline). Each group Bioluminescence images (BLI) was normalized by average BLI of total mice before treatment. […] Animals were monitored individually till death for survival evaluation.
The mice were imaged with the IVIS-50 system (Xenogen, Alameda, Calif.).
Overall survival was defined as the time from the date of tumor implantation to the date of death and is presented as the Kaplan-Meier survival curve.

[4] = test system: cancer stem cells of ES-2 tumors; experiment: Cancer stem cell analysis of treated tumors (tumor sphere, side population, RT-PCR); format: in vivo, SCID mice
Description: (8A) Tumor sphere-forming ability of treated tumor. Mouse was implanted with ES-2 cells (2×10^6/mouse) at day 1 and was treated at day 5, day 8, and day 11 at indicated dosage. Tumors were retrieved at day 14 for each indicated group. Tumors were dissociated into single cell suspension and cultured in an ultralow dish for 10 days. […] Representative figures are shown. (8B) Summary of tumor sphere formation (mean±SD). (8C) Flow cytometry analysis of Hoechst 33342-stained cells and identification of side population cells. Percentage of side population cells are shown. (D-G) RT-PCR analysis for the expressions of stemness marker (8D), genes for epithelial-mesenchymal transition (EMT) driver and expression of epithelial or mesenchymal phenotype (8E), genes for tumor angiogenesis (8F), and genes for multidrug resistance (8G). (8H) CXCR4/CXCL12 axis in stem cells maintenance. […] Experiments were repeated in triplicate.

[5] = human, in vivo, ip; cited from earlier work
[6] = hepatic artery infusion; cited from earlier work

CC(=O)O[C@H]1C(=O)[C@@]2(C)[C@H]([C@H](OC(=O)c3ccccc3)[C@]3(O)C[C@H](OC(=O)[C@H](O)[C@@H](NC(=O)c4ccccc4)c4ccccc4)C(C)=C1C3(C)C)[C@]1(OC(C)=O)CO[C@@H]1C[C@@H]2O [Taxol®, paclitaxel]
median overall survival [1]: 11.2 months
control of lung metastases (lung metastases; regional (intrapleural) delivery): some therapeutic efficacy
control of lung metastases (lung metastases; systematic delivery): unsatisfactory control of tumor
apoptosis of tumor [2]: 23.3%
complications (bowel obstruction or perforation) (recurrent ovarian tumor): higher
tumor control of recurrent tumor (recurrent ovarian tumor; perfused 1 h at 3 mL/min): good tumor control
therapeutic efficacy (bioluminescence imaging day 14 vs day 4) ([3]; 10 mg/kg/mouse, day 5, 8, 11 (FIG. 2B)): some efficacy
therapeutic efficacy (bioluminescence imaging day 14 vs day 4) ([3]; 10 mg/kg/mouse, day 5, 8, 11 (FIG. 6)): some efficacy
inhibition of colon tumor growth / antitumor activity (CT-26-luc cells; 10 mg/kg i.p.): did not inhibit colon tumor growth
median survival day (CT-26-luc cells; 10 mg/kg i.p.): 26 days
survival duration (CT-26-luc cells; 10 mg/kg i.p.): 27 days
inhibition of colon tumor growth (CT-26-luc cells; 10 mg/kg i.v.): did not inhibit colon tumor growth
median survival day (CT-26-luc cells; 10 mg/kg i.v.): 24 days
survival duration (CT-26-luc cells; 10 mg/kg i.v.): 27 days
CXCR4/CXCL12 expression compared to control group ([4]; i.v. delivery): increased expression of CXCR4/CXCL12
side population cells (Hoechst 33342) ([4]; regional delivery): increased
tumor sphere (microsphere) formation of treated tumor ([4]; systematic (i.v.) delivery, tumors retrieved day 14, cultured 10 days): increased microsphere formation
side population cells (Hoechst 33342) ([4]; systematic delivery): increased

N.N.[Cl][Pt][Cl] [cisplatin]
increased exposure to the peritoneal cavity as compared to the systemic compartment [5]: 20 fold
therapeutic efficacy (bioluminescence imaging day 14 vs day 4) ([3]; 5 mg/kg/mouse, day 5 and 10 (FIG. 3B)): some therapeutic effect

COc1cccc2c1C(=O)c1c(O)c3c(c(O)c1C2=O)C[C@@](O)(C(=O)CO)C[C@@H]3O[C@H]1C[C@H](N)[C@H](O)[C@H](C)O1 [doxorubicin]
therapeutic efficacy (bioluminescence imaging day 14 vs day 4) ([3]; 5 mg/kg/mouse, day 5 and 10 (FIG. 5)): some therapeutic effect

O=c1[nH]c(=O)n([C@H]2C[C@H](O)[C@@H](CO)O2)cc1F [floxuridine]
higher tumor drug levels as compared to portal vein infusion [6]: 15 fold

CC[C@@]1(O)C(=O)OCc2c1cc1n(c2=O)Cc2cc3c(CN(C)C)c(O)ccc3nc2-1 [topotecan]
therapeutic efficacy (bioluminescence imaging day 14 vs day 4) ([3]; 10 mg/kg/mouse, day 5 and 10 (FIG. 4B)): some therapeutic effect
